Measurements reported in patent US10112906B2, “1-aryl-3-alkylpyrazole insecticides” (E. I. DU PONT DE NEMOURS AND COMPANY, priority 2013, dated 2018).

How the values were obtained:
Assay type in all cases: in vivo
[1] = tested on: diamondback moth (Plutella xylostella (L.)); test: Test A: control of diamondback moth, foliar spray on mustard plant; conditions: neonate larvae, assessed after 6 days
Procedure: (§1) Test compounds were formulated using a solution containing 10% acetone, 90% water and 300 ppm X-77® Spreader Lo-Foam Formula non-ionic surfactant containing alkylarylpolyoxyethylene, free fatty acids, glycols and isopropanol (Loveland Industries, Inc. Greeley, Colo., USA). The formulated compounds were applied in 1 mL of liquid through a SUJ2 atomizer nozzle with ⅛ JJ custom body (Spraying Systems Co. Wheaton, Ill., USA) positioned 1.27 cm (0.5 inches) above the top of each test unit. Test compounds were sprayed at the rates indicated, and each test was replicated three times.
For evaluating control of diamondback moth (Plutella xylostella (L.)) the test unit consisted of a small open container with a 12-14-day-old mustard plant inside. This was pre-infested with ˜50 neonate larvae that were dispensed into the test unit via corn cob grits using an inoculator. The larvae moved onto the test plant after being dispensed into the test unit.
Test compounds were formulated and sprayed at 250 and/or 50 ppm. After spraying of the formulated test compound, each test unit was allowed to dry for 1 hour and then a black, screened cap was placed on top. The test units were held for 6 days in a growth chamber at 25° C. and 70% relative humidity. Plant feeding damage was then visually assessed based on foliage consumed, and larvae were assessed for mortality.

[2] = tested on: fall armyworm (Spodoptera frugiperda (J. E. Smith)); test: Test B: control of fall armyworm, foliar spray on corn (maize) plant; conditions: 1-day-old larvae, assessed after 6 days
Procedure: as §1
For evaluating control of fall armyworm (Spodoptera frugiperda (J. E. Smith)) the test unit consisted of a small open container with a 4-5-day-old corn (maize) plant inside. This was pre-infested with 10-15 1-day-old larvae on a piece of insect diet.
Test compounds were formulated and sprayed at 250 and/or 50 ppm. After spraying of the formulated test compound, the test units were maintained in a growth chamber for 6 days at 25° C. and 70% relative humidity. Plant feeding damage was then visually assessed based on foliage consumed, and larvae were assessed for mortality.

[3] = tested on: corn planthopper (Peregrinus maidis (Ashmead)); test: Test C: control of corn planthopper through contact and/or systemic means; conditions: 144 h, corn (maize) plant, nymphs, assessed after 6 days; for mortality at 250 ppm: sprayed at 250 ppm
Procedure: as §1
For evaluating control of corn planthopper (Peregrinus maidis (Ashmead)) through contact and/or systemic means, the test unit consisted of a small open container with a 3-4-day-old corn (maize) plant inside. White sand was added to the top of the soil prior to application of the test compound.
(§2) Test compounds were formulated and sprayed at 250 and/or 50 ppm. After spraying of the formulated test compound, the test units were allowed to dry for 1 h before they were post-infested with ˜15-20 nymphs (18-to-21-day-old). A black, screened cap was placed on the top of each test unit, and the test units were held for 6 days in a growth chamber at 22-24° C. and 50-70% relative humidity. Each test unit was then visually assessed for insect mortality.

[4] = tested on: potato leafhopper (Empoasca fabae (Harris)); test: Test D: control of potato leafhopper through contact and/or systemic means; conditions: 144 h, Soleil bean plant, adults, assessed after 6 days; for mortality at 50 ppm: sprayed at 50 ppm; for mortality at 250 ppm: sprayed at 250 ppm
Procedure: as §1
For evaluating control of potato leafhopper (Empoasca fabae (Harris)) through contact and/or systemic means, the test unit consisted of a small open container with a 5-6-day-old Soleil bean plant (primary leaves emerged) inside. White sand was added to the top of the soil, and one of the primary leaves was excised prior to application of the test compound.
as §2, with “1 hour” for “1 h”, “with 5 potato leafhoppers (18-to-21-day-old adults).” for “with ˜15-20 nymphs (18-to-21-day-old).”, “of the” for “of each”, “at 20°” for “at 22-24°”, “and 70%” for “and 50-70%”

[5] = tested on: green peach aphid (Myzus persicae (Sulzer)); test: Test E: control of green peach aphid through contact and/or systemic means; conditions: 144 h, radish plant, assessed after 6 days; for mortality at 250 ppm: sprayed at 250 ppm
Procedure: as §1
For evaluating control of green peach aphid (Myzus persicae (Sulzer)) through contact and/or systemic means, the test unit consisted of a small open container with a 12-15-day-old radish plant inside. This was pre-infested by placing on a leaf of the test plant 30-40 aphids on a piece of leaf excised from a culture plant (cut-leaf method). The aphids moved onto the test plant as the leaf piece desiccated. After pre-infestation, the soil of the test unit was covered with a layer of sand.
Test compounds were formulated and sprayed at 250 and/or 50 ppm. After spraying of the formulated test compound, each test unit was allowed to dry for 1 hour and then a black, screened cap was placed on top. The test units were held for 6 days in a growth chamber at 19-21° C. and 50-70% relative humidity. Each test unit was then visually assessed for insect mortality.

[6] = tested on: Western Flower Thrips (Frankliniellla occidentalis (Pergande)); test: Test F: control of Western Flower Thrips through contact and/or systemic means; conditions: sprayed at 250 ppm; Soleil bean plant, adult thrips; held for 6 days
Procedure: as §1
For evaluating control of the Western Flower Thrips (Frankliniellla occidentalis (Pergande)) through contact and/or systemic means, the test unit consisted of a small open container with a 5-7-day-old Soleil bean plant inside.
Test compounds were formulated and sprayed at 250 ppm. After spraying, the test units were allowed to dry for 1 hour, and then 22-27 adult thrips were added to each unit. A black, screened cap was placed on top, and the test units were held for 6 days at 25° C. and 45-55% relative humidity.

Row | SMILES | control efficacy (40% or less feeding damage and/or 100% mortality) ([1]; sprayed at 50 ppm) | control efficacy (40% or less feeding damage and/or 100% mortality) ([1]; sprayed at 250 ppm) | control efficacy (40% or less feeding damage and/or 100% mortality) ([2]; sprayed at 50 ppm) | control efficacy (40% or less feeding damage and/or 100% mortality) ([2]; sprayed at 250 ppm) | mortality at 250 ppm [3] [%] | mortality at 50 ppm [4] [%] | mortality at 250 ppm [4] [%] | mortality at 250 ppm [5] [%] | control efficacy (30% or less plant damage and/or 100% mortality) [6] | mortality at 50 ppm ([5]; sprayed at 50 ppm) [%] | mortality at 50 ppm ([3]; sprayed at 50 ppm) [%]
1 | FC(F)(F)c1ccnc(-n2cc(CN3CCC(C(F)(F)F)CC3)c(C3CCCC3)n2)c1 [Compound 25, 2-[3-cyclopentyl-4-[[4-(trifluoromethyl)-1-piperidinyl]methyl]-1H-pyrazol-1-yl]-4-(trifluoromethyl)pyridine] | very good to excellent levels of control efficacy | very good to excellent levels of control efficacy | very good to excellent levels of control efficacy | very good to excellent levels of control efficacy | ≥ 80 | ≥ 80 | ≥ 80 | ≥ 80 | very good to excellent levels of control efficacy |  | 
2 | N#CC1CCN(Cc2cn(-c3cc(C(F)(F)F)ccn3)nc2C2CCCC2)CC1 [Compound 26, 1-[[3-cyclopentyl-1-[4-(trifluoromethyl)-2-pyridinyl]-1H-pyrazol-4-yl]methyl]-4-piperidinecarbonitrile] | very good to excellent levels of control efficacy | very good to excellent levels of control efficacy | very good to excellent levels of control efficacy | very good to excellent levels of control efficacy |  |  | ≥ 80 | ≥ 80 | very good to excellent levels of control efficacy | ≥ 80 | 
3 | CC(C)c1nn(-c2cc(C(F)(F)F)ccn2)cc1CN1CCC(C(F)(F)F)CC1 [Compound 54, 2-[3-(1-methylethyl)-4-[[4-(trifluoromethyl)-1-piperidinyl]methyl]-1H-pyrazol-1-yl]-4-(trifluoromethyl)pyridine] |  |  |  |  | ≥ 80 | ≥ 80 | ≥ 80 |  |  |  | ≥ 80
4 | N#CC1CCN(Cc2cn(-c3ccc(Cl)c(Cl)c3)nc2C2CCC2)CC1 [Compound 27] | very good to excellent levels of control efficacy | very good to excellent levels of control efficacy | very good to excellent levels of control efficacy | very good to excellent levels of control efficacy |  |  |  |  | very good to excellent levels of control efficacy |  | 
